Experimental data published in patent publication US20120094295A1, “NEURODEGENERATIVE DISEASE DIAGNOSTIC COMPOSITIONS AND METHODS OF USE” (The Johns Hopkins University, priority 2008, published 2012).
Read-outs that look alike come from different tables or passages of the source. Values belong to the molecule of their own block, whether it stands above or below them.

Columns and labels:
[1] = tested on: EAAT2 promoter; experiment: EAAT2 promoter luciferase reporter gene assay in immortalized astrocytes; format: cell-based, human; settings: luciferase reporter driven by 2.5 kB EAAT2 promoter fragment, 72 hours
Procedure: (§1) FIG. 3A is a graph showing EAAT2 promoter activation. EAAT2 promoter activation was examined by measuring luciferase activity using a reporter gene construct driven by a 2.5 kB promoter fragment of EAAT2 (Rothstein et al., Nature. 2005 Jan. 6; 433(7021):73-7). […] Glutamate-uptake was measured using standard techniques. […] Cells were then exposed to an oxygen-glucose-free environment for 1.5 hours (Goldberg et al). After the oxygen-glucose deprivation, cells were washed back into normal artificial cerebral spinal fluid (ACSF) solution and maintained for another 23 hours at 37 C, 5% CO2. Neuronal cell death was determined by measuring […] (LDH) release. Cells treated with MK-801, 6-cyano-7-nitroquinoxaline-2,3-dione), (CNQX) and nimodipine (MCN) were used as a positive control for neuroprotective activity.

[2] = tested on: EAAT2/GLT-1; experiment: EAAT2/GLT-1 gene expression in nasal olfactory epithelium; settings: in vivo
[3] = tested on: glutamate transporter EAAT2/GLT-1; experiment: Glutamate transporter function in vitro and in vivo
[4] = Human plasma pharmacokinetics of thiamphenicol in healthy volunteers; format: in vivo; settings: for AUC / Cmax / half-life / Tmax: human, plasma, po
[5] = tested on: GLT-1 mRNA; experiment: GLT-1 mRNA in treated wild-type mice; format: in vivo, mouse; settings: WT mice, 12.5 or 25 mg/kg/day oral, 10 days
Procedure: (§2) Total RNA was reversed transcribed using Applied Biosystems' high capacity cDNA archive kit. The quantitative real time RT-PCR assay was performed using the iCycler iQ Real-Time Detection System from BioRad. TaqMan Probes, which allow for specific mRNA amplification, were purchased from Applied Biosystems.

[6] = tested on: glutamate uptake; experiment: Glutamate uptake in primary cultures of neurons and astrocytes; format: cell-based; settings: primary mouse cultures of neurons and astrocytes, 72 hours
Procedure: as §1

[7] = Safety and tolerability in healthy volunteers; format: in vivo, human; settings: 750 or 1500 mg once a day oral, 14 days
Procedure: Thirty-four normal volunteers were divided into three groups: placebo (N=6), TAP 750 mg administered orally once a day (N=12) and TAP 1500 mg administered orally once a day (N=12). Nasal biopsies were taken on day −1 (before drug treatment) and day 14. Plasma pharmacokinetics were done on day 1 and 13 and cerebrospinal fluid samples were taken on day 13 to study the levels of TAP in the brain.
R UX122 was administered in 3 groups (placebo, 750 mg/day, 1500 mg/day) starting day 1 to day 14. Blood samples were taken throughout the trial period to obtain basic pharmacokinetic analyses as well as to monitor for safety and tolerability. Every patient underwent a spinal tap to collect CSF on day 13.

[8] = human, in vivo
[9] = tested on: primary mouse cultures of neurons and astrocytes; experiment: Oxygen-glucose deprivation (OGD) assay, neuronal cell death by LDH release; format: cell-based; settings: 72 hours treatment, then oxygen-glucose deprivation 1.5 hours
Procedure: as §1

[10] = tested on: GFAP mRNA; experiment: qPCR of nasal biopsy samples before and after drug treatment; format: in vivo, human; settings: healthy volunteers, 750 or 1500 mg once a day oral, day 14 vs day -1
Procedure: (§3) Nasal biopsies were performed the day before the beginning of drug treatment (day −1) and on day 14. mRNA levels of several genes were quantified by qPCR analysis. Data are presented as fold increases in mRNA levels after drug treatment for each individual patient.
(§4) Nasal biopsies were taken on day −1 (before drug treatment) and day 14. […] In addition to EAAT2, the mRNA levels of the following genes were measured: GFAP (astrocytic expression in CNS), EAAT1 (astrocytic expression in CNS, expressed in precursor neuronal cells in olfactory epithelium), OMP (neuronal expression in olfactory epithelium and CNS), and MCT-4. […] The intra-patient variability was obtained by comparing mRNA levels obtained from the left and right side of the nose of each volunteer. This was important since the drug study was designed to obtain a biopsy from one side of the nose before drug treatment and from the opposite side of the nose after drug treatment. This allowed each person to serve as their own control and provided an opportunity to follow changes in mRNA levels within individuals.
(§5) Human nasal biopsies were performed by otolaryngologists specializing in sinus surgery. […] Local anesthesia was used for the procedure. Local anesthesia was applied to the nasal cavity. Lidocaine liquid 4% (Xylocaine®) and oxymetazoline HCl 0.05% (Afrin®) was sprayed in the nose. Then, if needed, 1% lidocaine with 1/100,000 epinephrine was injected to provide both anesthesia and vasoconstriction.
(§6) The procedure was performed under endoscopic control and used either a small curette or biting forceps for tissue removal. To avoid trauma to the cribriform plate, the biopsies were usually taken from the upper nasal septum. […] The tissue was removed from either the front or the back of the olfactory cleft, and sometimes both. Up to two blocks of tissue (approximately 2 mm each) were collected from each side of the nose. […] Subjects were instructed not to blow their nose and not to perform any strenuous physical activity for 24 hours after the procedure.
(§7) Healthy volunteers underwent a nasal biopsy on day −1 on one side of the nose only. R UX122 was administered in 3 groups (placebo, 750 mg/day, 1500 mg/day) starting day 1 to day 14. Blood samples were taken throughout the trial period to obtain basic pharmacokinetic analyses as well as to monitor for safety and tolerability. […] On day 14, a nasal biopsy was done on the other side of the nose.
as §2

[11] = tested on: MCT-4 mRNA; experiment: as above; format: in vivo, human; settings: healthy volunteers, 750 or 1500 mg once a day oral, day 14 vs day -1
Procedure: as §3, §4, §5, §6, §7, §2

[12] = tested on: EAAT1 mRNA; experiment: as above; format: in vivo, human; settings: healthy volunteers, 750 or 1500 mg once a day oral, day 14 vs day -1
Procedure: as §3, §4, §5, §6, §7, §2

[13] = tested on: OMP mRNA; experiment: as above; format: in vivo, human; settings: healthy volunteers, 750 or 1500 mg once a day oral, day 14 vs day -1
Procedure: as §3, §4, §5, §6, §7, §2

[14] = tested on: EAAT2/GLT-1 mRNA; experiment: as above; format: in vivo, human; settings: healthy volunteers, 750 or 1500 mg once a day oral, day 14 vs day -1
Procedure: as §3, §4, §5, §6, §7, §2

SMILES: CO/N=C(\C(=O)N[C@@H]1C(=O)N2C(C(=O)O)=C(CSc3nc(=O)c(=O)[nH]n3C)CS[C@H]12)c1csc(N)n1 [ceftriaxone]
EAAT2 promoter activation [1]: activated the transporter on a promoter level
EAAT2/GLT-1 gene expression in nasal olfactory epithelium [2]: increased EAAT2/GLT-1 gene expression in nasal olfactory epithelium
glutamate transporter function [3]: increased transporter function in vitro and in vivo

plasma concentrations versus dose ([4]; 750 and 1500 mg/day oral): dose-related plasma concentrations
drug accumulation ([4]; 14 days once daily oral): no drug accumulation
AUC ([4]; 750 mg/day, oral 750 mg/day, Day 1): 42600 ng·h/mL
Cmax ([4]; 750 mg/day, oral 750 mg/day, Day 1, plasma): 6310 ng/mL
half-life ([4]; 750 mg/day, oral 750 mg/day, Day 1, read-out: T ½ (converted)): 4.1 ± 0.8 h
Tmax ([4]; 750 mg/day, oral 750 mg/day, Day 1, read-out: Tmax median(range)): 2 h
AUC ([4]; 750 mg/day, oral 750 mg/day, Day 13): 51100 ng·h/mL
Cmax ([4]; 750 mg/day, oral 750 mg/day, Day 13, plasma): 6550 ng/mL
half-life ([4]; 750 mg/day, oral 750 mg/day, Day 13, read-out: T ½ (converted)): 4.8 ± 0.6 h
Tmax ([4]; 750 mg/day, oral 750 mg/day, Day 13, read-out: Tmax median(range)): 2 h
AUC ([4]; 1500 mg/day, oral 1500 mg/day, Day 1): 88000 ng·h/mL
Cmax ([4]; 1500 mg/day, oral 1500 mg/day, Day 1, plasma): 10700 ng/mL
half-life ([4]; 1500 mg/day, oral 1500 mg/day, Day 1, read-out: T ½ (converted)): 4.2 ± 0.5 h
Tmax ([4]; 1500 mg/day, oral 1500 mg/day, Day 1, read-out: Tmax median(range)): 2.5 h
AUC ([4]; 1500 mg/day, oral 1500 mg/day, Day 13): 96700 ng·h/mL
Cmax ([4]; 1500 mg/day, oral 1500 mg/day, Day 13, plasma): 11000 ng/mL
half-life ([4]; 1500 mg/day, oral 1500 mg/day, Day 13, read-out: T ½ (converted)): 5.7 ± 1 h
Tmax ([4]; 1500 mg/day, oral 1500 mg/day, Day 13, read-out: Tmax median(range)): 2 h
half-life ([4]; 750 and 1500 mg/day oral, read-out: average half life): 4 to 6 h
correlation between plasma concentrations and CSF levels [8]: linear correlation
SMILES: CS(=O)(=O)c1ccc([C@@H](O)[C@@H](CO)NC(=O)C(Cl)Cl)cc1 [TAP, thiamphenicol]
GLT-1 mRNA [5]: dose-dependently increased
glutamate uptake [6]: dose-dependently increased glutamate uptake
serious adverse side-effects [7]: no serious adverse side-effects were reported
tolerability [7]: well tolerated at every dose
EAAT2 promoter activation [1]: activated the transporter on a promoter level
EAAT2/GLT-1 gene expression in nasal olfactory epithelium [2]: increased EAAT2/GLT-1 gene expression in nasal olfactory epithelium
glutamate transporter function [3]: increased transporter function in vitro and in vivo
neuroprotection (neuronal cell death, LDH release) [9]: dose-dependent neuroprotection
GFAP mRNA levels in olfactory epithelium after drug treatment [10]: dose-dependent positive trend towards an increase in mRNA levels
GFAP mRNA levels in olfactory epithelium after drug treatment ([10]; listed as thiamphenicol): positive trend towards increased gene expression levels
MCT-4 mRNA levels in olfactory epithelium after drug treatment [11]: no difference in mRNA levels
MCT-4 mRNA levels in olfactory epithelium after drug treatment ([11]; listed as thiamphenicol): no change in gene expression levels
EAAT1 mRNA levels in olfactory epithelium after drug treatment [12]: no difference in mRNA levels
EAAT1 mRNA levels in olfactory epithelium after drug treatment ([12]; listed as thiamphenicol): no change in gene expression levels
OMP mRNA levels in olfactory epithelium after drug treatment [13]: no difference in mRNA levels
OMP mRNA levels in olfactory epithelium after drug treatment ([13]; listed as thiamphenicol): no change in gene expression levels
EAAT2/GLT-1 mRNA levels in olfactory epithelium after drug treatment [14]: dose-dependent positive trend towards an increase in mRNA levels
EAAT2/GLT-1 mRNA levels in olfactory epithelium after drug treatment ([14]; listed as thiamphenicol): positive trend towards increased gene expression levels
